# Data: patent US20190054103A1, “METHOD OF TREATMENT OF TP53 WILD-TYPE TUMORS WITH 2',2'-DIFLUORO-5-AZA-2'-DEOXYCYTIDINE OR PRODRUGS THEREOF” (priority 2016, published 2019)
# Where two headings read alike, the source gives them in different places.
# What was measured:
# [1] = tested on: CCRF-CEM; test: NCI 60 Cell Line Panel growth inhibition; format: cell-based, human; details: Leukemia, TP53 null/mutant
# Excerpt: (§1) The NCI-60 Cell Line Panel was assembled by the National Cancer Institute as an in vitro anticancer drug screen. The panel comprises human cancer cell lines representing nine different tissues of origin: breast, colon, central nervous system, renal, lung, melanoma, ovarian, prostate, and hematogenous. […] See, e.g., Leroy et al. “Analysis of TP53 Mutation Status in Human Cancer Cell Lines: a Reassesment” Hum Mutat 2014 35(6): 756-765.
# [2] = tested on: SK-MEL-2; test: NCI 60 Cell Line Panel growth inhibition; format: cell-based, human; details: SK-MEL-2, Melanoma, TP53 null/mutant
# Excerpt: as §1
# [3] = tested on: A498; test: NCI 60 Cell Line Panel growth inhibition; format: cell-based, human; details: A498, Renal cancer, TP53 wild type
# Excerpt: as §1
# [4] = tested on: IGROV-1; test: NCI 60 Cell Line Panel growth inhibition; format: cell-based, human; details: IGROV-1, Ovarian cancer, TP53 null/mutant
# Excerpt: as §1
# [5] = tested on: LOX IMVI; test: NCI 60 Cell Line Panel growth inhibition; format: cell-based, human; details: Melanoma, TP53 wild type
# Excerpt: as §1
# [6] = tested on: MDA-MB-231; test: NCI 60 Cell Line Panel growth inhibition; format: cell-based, human; details: MDA-MB-231, Breast cancer, TP53 null/mutant
# Excerpt: as §1
# [7] = tested on: KM12; test: NCI 60 Cell Line Panel growth inhibition; format: cell-based, human; details: KM12, Colon cancer, TP53 null/mutant
# Excerpt: as §1
# [8] = tested on: SNB-19; test: NCI 60 Cell Line Panel growth inhibition; format: cell-based, human; details: SNB-19, CNS cancer, TP53 null/mutant
# Excerpt: as §1
# [9] = tested on: OVCAR-3; test: NCI 60 Cell Line Panel growth inhibition; format: cell-based, human; details: OVCAR-3, Ovarian cancer, TP53 null/mutant
# Excerpt: as §1
# [10] = tested on: EKVX; test: NCI 60 Cell Line Panel growth inhibition; format: cell-based, human; details: Lung-NSCL, TP53 null/mutant
# Excerpt: as §1
# [11] = tested on: SW-620; test: NCI 60 Cell Line Panel growth inhibition; format: cell-based, human; details: SW-620, Colon cancer, TP53 null/mutant
# Excerpt: as §1
# [12] = tested on: MALME-3M; test: NCI 60 Cell Line Panel growth inhibition; format: cell-based, human; details: Melanoma, TP53 wild type
# Excerpt: as §1
# [13] = tested on: MOLT-4; test: NCI 60 Cell Line Panel growth inhibition; format: cell-based, human; details: MOLT-4, Leukemia, TP53 null/mutant
# Excerpt: as §1
# [14] = tested on: OVCAR-5; test: NCI 60 Cell Line Panel growth inhibition; format: cell-based, human; details: OVCAR-5, Ovarian cancer, TP53 wild type
# Excerpt: as §1
# [15] = tested on: SN12C; test: NCI 60 Cell Line Panel growth inhibition; format: cell-based, human; details: Renal cancer, TP53 null/mutant
# Excerpt: as §1
# [16] = tested on: OVCAR-8; test: NCI 60 Cell Line Panel growth inhibition; format: cell-based, human; details: OVCAR-8, Ovarian cancer, TP53 null/mutant
# Excerpt: as §1
# [17] = tested on: MDA-MB-435; test: NCI 60 Cell Line Panel growth inhibition; format: cell-based, human; details: MDA-MB-435, Melanoma, TP53 null/mutant
# Excerpt: as §1
# [18] = tested on: RPMI-8226; test: NCI 60 Cell Line Panel growth inhibition; format: cell-based, human; details: RPMI-8226, Leukemia, TP53 null/mutant
# Excerpt: as §1
# [19] = tested on: HOP-92; test: NCI 60 Cell Line Panel growth inhibition; format: cell-based, human; details: HOP-92, Lung-NSCL, TP53 null/mutant
# Excerpt: as §1
# [20] = tested on: K-562; test: NCI 60 Cell Line Panel growth inhibition; format: cell-based, human; details: K-562, Leukemia, TP53 null/mutant
# Excerpt: as §1
# [21] = tested on: HS 578T; test: NCI 60 Cell Line Panel growth inhibition; format: cell-based, human; details: Breast cancer, TP53 null/mutant
# Excerpt: as §1
# [22] = tested on: SF-539; test: NCI 60 Cell Line Panel growth inhibition; format: cell-based, human; details: SF-539, CNS cancer, TP53 null/mutant
# Excerpt: as §1
# [23] = tested on: SR; test: NCI 60 Cell Line Panel growth inhibition; format: cell-based, human; details: Leukemia, TP53 wild type
# Excerpt: as §1
# [24] = tested on: HT29; test: NCI 60 Cell Line Panel growth inhibition; format: cell-based, human; details: HT29, Colon cancer, TP53 null/mutant
# Excerpt: as §1
# [25] = tested on: 786-0; test: NCI 60 Cell Line Panel growth inhibition; format: cell-based, human; details: 786-0, Renal cancer, TP53 null/mutant
# Excerpt: as §1
# [26] = tested on: UO-31; test: NCI 60 Cell Line Panel growth inhibition; format: cell-based, human; details: UO-31, Renal cancer, TP53 wild type
# Excerpt: as §1
# [27] = tested on: SNB-75; test: NCI 60 Cell Line Panel growth inhibition; format: cell-based, human; details: SNB-75, CNS cancer, TP53 null/mutant
# Excerpt: as §1
# [28] = tested on: SK-MEL-28; test: NCI 60 Cell Line Panel growth inhibition; format: cell-based, human; details: SK-MEL-28, Melanoma, TP53 null/mutant
# Excerpt: as §1
# [29] = Pharmacokinetics after SC administration of NUC041 in phospholipid gel depot to mice; details: analyte in plasma following SC administration of NUC041 (100 mg/kg) to mice
# [30] = tested on: HL-60 (leukemia, TP null); details: HL-60 nude mice
smiles,measurement,setting,value
"Nc1ncn([C@@H]2O[C@H](CO)[C@@H](O)C2(F)F)c(=O)n1 [NUC013, 4-amino-1-((2R,4R,5R)-3,3-difluoro-4-hydroxy-5-(hydroxymethyl)tetrahydrofuran-2-yl)-1,3,5-triazin-2(1H)-one]",Growth (%) at 10 μM,[1],23.67%
same,Growth (%) at 10 μM,[2],104.47%
same,Growth (%) at 10 μM,[3],38.04%
same,Growth (%) at 10 μM,[4],56.77%
same,Growth (%) at 10 μM,[5],34.53%
same,Growth (%) at 10 μM,[6],79.98%
same,Growth (%) at 10 μM,[7],61.18%
same,Growth (%) at 10 μM,[8],58.88%
same,Growth (%) at 10 μM,[9],70.56%
same,Growth (%) at 10 μM,[10],86.06%
same,Growth (%) at 10 μM,[11],51.21%
same,Growth (%) at 10 μM,[12],67.90%
same,Growth (%) at 10 μM,[13],35.63%
same,Growth (%) at 10 μM,[14],86.95%
same,Growth (%) at 10 μM,[15],51.65%
same,Growth (%) at 10 μM,[16],49.95%
same,Growth (%) at 10 μM,[17],53.04%
same,Growth (%) at 10 μM,[18],39.24%
same,Growth (%) at 10 μM,[19],34.34%
same,Growth (%) at 10 μM,[20],65.66%
same,Growth (%) at 10 μM,[21],90.37%
same,Growth (%) at 10 μM,[22],22.25%
same,Growth (%) at 10 μM,[23],14.99%
same,Growth (%) at 10 μM,[24],70.09%
same,Growth (%) at 10 μM,[25],26.29%
same,Growth (%) at 10 μM,[26],39.00%
same,Growth (%) at 10 μM,[27],64.95%
same,Growth (%) at 10 μM,[28],78.46%
same,AUClast (area under the plasma concentration versus time curve from 0 to last quantifiable sampling time),[29],1939 ng·h/mL
same,animals removed from the study for death or moribund,[30]; 5.8 mg/kg,no animals removed from the study for death or moribund
same,tumor weights vs saline control,[30]; 5.8 mg/kg,not significantly different
same,"hazard ratio (HR) vs saline control (death, ulcerated tumor or tumor >4 g)",[30]; 5.8 mg/kg (equimolar to decitabine 5 mg/kg),0.46
same,"hazard ratio (HR) vs saline control (death, ulcerated tumor or tumor >4 g)",[30]; 20 mg/kg,0.26
same,tumor volume vs saline control,"[30]; 20 mg/kg, study days 18 through 28, FIG. 3A",significant decreases
